From ChEMBL document CHEMBL4052722, “Virtual screening, synthesis and biological evaluation of DNA intercalating antiviral agents” (Bioorg Med Chem Lett, 2017)

Tests used:
[1] = test system: Vaccinia virus; assay: Antiviral activity against Vaccinia virus LIVP harboring GFP infected in African green monkey CV1 cells assessed as GFP expression at 10 uM preincubated for 4 hrs with cells followed by viral infection measured after 24 hrs by flow cytometric analysis relative to control; format: functional, Orthopoxvirus vaccinia
[2] = test system: Vaccinia virus; assay: Antiviral activity against Vaccinia virus LIVP harboring GFP infected in African green monkey CV1 cells assessed as inhibition of GFP expression at 30 to 50 uM preincubated for 4 hrs with cells followed by viral infection measured after 24 hrs by flow cytometric analysis relative to control; format: functional, Orthopoxvirus vaccinia
[3] = test system: Vaccinia virus; assay: (§1) Antiviral activity against Vaccinia virus LIVP harboring GFP infected in African green monkey CV1 cells assessed as virus titer at 10 uM preincubated with cells for 4 hrs followed by viral infection measured after 48 hrs by gentian violet staining-based microscopic analysis (reference value: 3.3 +/- 0.1 log10PFU/ml); format: functional, Orthopoxvirus vaccinia
[4] = test system: Vaccinia virus; assay: as §1, with “at 1” for “at 10”; format: functional, Orthopoxvirus vaccinia
[5] = test system: Vaccinia virus; assay: Antiviral activity against Vaccinia virus LIVP harboring GFP infected in African green monkey CV1 cells assessed as virus titer preincubated with cells for 4 hrs followed by viral infection measured after 48 hrs by gentian violet staining-based microscopic analysis; format: functional; details: Orthopoxvirus vaccinia, CV-1
[6] = test system: Vaccinia virus; assay: as §1, with “at 30” for “at 10”; format: functional, Orthopoxvirus vaccinia
[7] = test system: Vaccinia virus; assay: as §1, with “at 5” for “at 10”; format: functional, Orthopoxvirus vaccinia
[8] = test system: Vaccinia virus; assay: as §1, with “at 50” for “at 10”; format: functional, Orthopoxvirus vaccinia

SMILES | Activity [1] [%] | other results
CN1CCN(CCn2c3ccccc3c3nc4ccccc4nc32)CC1 | 91 | –
CN(C)CCn1c2ccccc2c2nc3ccccc3nc21 | 67 | –
CCCCN(C)CCn1c2ccccc2c2nc3ccccc3nc21 | 77 | –
O=C(CN1CCCCCC1)NN1C(=O)c2cccc3cccc(c23)C1=O | 111 | –
CCN(CC)CCNC(=O)Cn1c2ccccc2c2nc3ccccc3nc21 | 67 | –
O=C(Cn1c2ccccc2c2nc3ccccc3nc21)NCCN1CCOCC1 | 125 | –
CN(C)CCCNC(=O)CCCn1c2ccccc2c2nc3ccccc3nc21 | 111 | –
Cc1ccc2c(c1)c1nc3ccccc3nc1n2CCN1CCN(C)CC1 | 111 | –
COC(=O)CN(C)CCCN1C(=O)c2cccc3cccc(c23)C1=O | 83 | –
CCCCN(CCO)CCN1C(=O)c2cccc3cccc(c23)C1=O | 83 | –
CN1CCN(CCN2C(=O)c3cccc4cccc(c34)C2=O)CC1 | 77 | –
O=C(CCCn1c2ccccc2c2nc3ccccc3nc21)NCCN1CCCCC1 | 100 | –
CN1CCN(CC(=O)NN2C(=O)c3cccc4cccc(c34)C2=O)CC1 | 48 | –
CN(C)CCCNCCn1c2ccccc2c2nc3ccccc3nc21 | 45 | fold change (FC) [2]: 8 - 10; Activity [3]: 3.3 log10PFU; Activity [4]: 3.5 log10PFU; IC50 [5]: 22 µM; Activity [6]: 2.7 log10PFU
CCN(CC)CCn1c2ccc(OC)cc2c2nc3ccccc3nc21 | 91 | –
c1ccc2nc3c(nc2c1)c1ccccc1n3CCNCCCN1CCOCC1 | 48 | fold change (FC) [2]: 8 - 10; Activity [3]: 3.3 log10PFU; Activity [4]: 3.6 log10PFU; IC50 [5]: 19 µM; Activity [6]: 2.6 log10PFU
CN(C)CCCOC(=O)Cn1c2ccccc2c2nc3ccccc3nc21 | 83 | –
O=C(CN1CCCC1)NN1C(=O)c2cccc3cccc(c23)C1=O | 111 | –
CC(O)N(C)CCn1c2ccccc2c2nc3ccccc3nc21 (centres undefined) | 91 | –
O=C(Cn1c2ccccc2c2nc3ccccc3nc21)OCCN1CCCCC1 | 71 | –

SMILES | Activity [1] [%] | other results
CN(C)CCOC(=O)CCCn1c2ccccc2c2nc3ccccc3nc21 | 125 | –
CCN(CC)CCCNC(=O)Cn1c2ccccc2c2nc3ccccc3nc21 | 83 | –
CCN(CC)CCNCCn1c2ccccc2c2nc3ccccc3nc21 | 91 | –
CCN(CC)CCCNCCn1c2ccccc2c2nc3ccccc3nc21 | 28 | Activity [7]: 2.8 log10PFU; Activity [3]: 2.6 log10PFU; Activity [4]: 2.8 log10PFU; IC50 [5]: < 1 µM
O=C(CCCn1c2ccccc2c2nc3ccccc3nc21)NCCCN1CCOCC1 | 111 | –
CN(CCO)CCN1C(=O)c2cccc3cccc(c23)C1=O | 83 | –
CCN(CCO)CCN1C(=O)c2cccc3cccc(c23)C1=O | 71 | –
CN(C)CCNC(=O)Cn1c2ccccc2c2nc3ccccc3nc21 | 59 | –
CN(C)CCNC(=O)CCCn1c2ccccc2c2nc3ccccc3nc21 | 100 | –
CC1CCN(CC(=O)NN2C(=O)c3cccc4cccc(c34)C2=O)CC1 | 125 | –
COc1ccc2c(c1)c1nc3ccccc3nc1n2CCN1CCCCC1 | 23 | fold change (FC) [2]: 8 - 10; Activity [8]: 2.4 log10PFU; Activity [3]: 2.8 log10PFU; Activity [4]: 3.1 log10PFU; IC50 [5]: 5 µM
CN(C)CCCNC(=O)Cn1c2ccccc2c2nc3ccccc3nc21 | 42 | fold change (FC) [2]: 8 - 10; Activity [8]: 2.5 log10PFU; Activity [3]: 2.8 log10PFU; Activity [4]: 3.4 log10PFU; IC50 [5]: 10 µM
CN(C)CCNCCn1c2ccccc2c2nc3ccccc3nc21 | 77 | –
CCN(CC)CCNC(=O)CCCn1c2ccccc2c2nc3ccccc3nc21 | 91 | –
CCN(CC)CCCC(C)N1C(=O)c2cccc3cccc(c23)C1=O (centres undefined) | 111 | –
O=C(CCCn1c2ccccc2c2nc3ccccc3nc21)OCCN1CCOCC1 | 111 | –
O=C(Cn1c2ccccc2c2nc3ccccc3nc21)NCCCN1CCOCC1 | 83 | –
c1ccc2nc3c(nc2c1)c1ccccc1n3CCNCCN1CCCCC1 | 71 | –
O=C(CCCn1c2ccccc2c2nc3ccccc3nc21)NCCN1CCOCC1 | 111 | –
COC(=O)CN1CCN(CCN2C(=O)c3cccc4cccc(c34)C2=O)CC1 | 77 | –
